According to patent US10442796B2, “2,3,5-substituted thiophene compound as protein kinase inhibitor” (KOREA INSTITUTE OF SCIENCE AND TECHNOLOGY, priority 2016, dated 2019):
Numbering of substitutions follows the chain as printed. Where a name gives a salt, the structure may show the parent alone.

How the values were obtained:
Test in all cases: Growth inhibitory activity against Ba/F3 cell line
Format in all cases: cell-based
[1] = biological target: T1, FLT3-ITD-F691L-D835Y Ba/F3 cells (Homo sapiens, UniProt P36888, F691L/D835Y, cells depend on it, form not given); details: Ba/F3 expressing FLT3-ITD-F691L-D835Y; 72 hours; cell titer glo; read-out: IC50 (uM) FLT3-ITD-F691L-D835Y
T1 sequence (P36888 1-993 F691L/D835Y): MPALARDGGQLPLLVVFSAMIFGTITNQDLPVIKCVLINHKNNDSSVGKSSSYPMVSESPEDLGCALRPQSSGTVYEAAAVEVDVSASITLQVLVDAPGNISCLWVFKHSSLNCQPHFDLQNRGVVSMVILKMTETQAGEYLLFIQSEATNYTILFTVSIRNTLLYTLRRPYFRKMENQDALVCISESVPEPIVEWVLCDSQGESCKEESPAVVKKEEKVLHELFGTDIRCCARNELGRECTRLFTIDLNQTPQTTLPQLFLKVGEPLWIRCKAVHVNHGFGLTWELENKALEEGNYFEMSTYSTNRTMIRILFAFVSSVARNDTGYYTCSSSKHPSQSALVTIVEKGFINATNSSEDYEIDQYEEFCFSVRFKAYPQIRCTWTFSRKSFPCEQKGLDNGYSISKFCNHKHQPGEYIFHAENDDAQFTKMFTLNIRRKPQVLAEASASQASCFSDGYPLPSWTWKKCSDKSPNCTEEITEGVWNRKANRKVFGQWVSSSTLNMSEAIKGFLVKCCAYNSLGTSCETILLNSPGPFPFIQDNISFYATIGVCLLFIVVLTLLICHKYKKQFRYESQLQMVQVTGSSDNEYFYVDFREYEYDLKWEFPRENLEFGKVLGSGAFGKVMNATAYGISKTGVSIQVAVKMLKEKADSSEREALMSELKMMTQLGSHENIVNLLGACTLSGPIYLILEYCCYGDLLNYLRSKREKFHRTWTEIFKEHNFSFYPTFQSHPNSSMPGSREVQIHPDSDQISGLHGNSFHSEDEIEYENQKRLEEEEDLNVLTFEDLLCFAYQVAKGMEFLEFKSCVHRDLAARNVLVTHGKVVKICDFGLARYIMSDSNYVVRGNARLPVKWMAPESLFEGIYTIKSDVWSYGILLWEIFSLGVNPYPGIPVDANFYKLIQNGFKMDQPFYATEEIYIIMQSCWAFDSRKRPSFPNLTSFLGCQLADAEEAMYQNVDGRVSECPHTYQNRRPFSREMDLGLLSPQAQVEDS
Description: (§1) A Ba/F3 cell line expressing an FLT3 mutation gene was cultured in a culture solution including 90% RPMI, 10% FBS, and an antibiotic (Welgene). 100 uL of the Ba/F3 cell line was put into each of 5,000 wells of a TC-treated 96 well plate (SPL), and then 1 uL of a test compound diluted in dimethylsulfoxide (diluted for each 3 paint from a concentration of 1 mM, total 10 concentrations) was each injected thereinto. Thereafter, the resulting cell lines were incubated in a cell culture incubator for 72 hours. 50 uL of a cell titer glo (Promega) solution was added thereto, the resulting mixture was stored at room temperature for 10 minutes, and then the light emission intensity was measured by using a reader (Envision, PerkinElmer). The light emission intensity was shown as a graph for each final concentration of the test compound, and the GI50 value was obtained by using a Prism 5.0 (GraphPad) software.

[2] = biological target: T2, FLT3-ITD Ba/F3 cells (Homo sapiens, UniProt P36888, cells depend on it, form not given); details: Ba/F3 expressing FLT3-ITD; 72 hours; cell titer glo; read-out: IC50 (uM) FLT3-ITD
T2 sequence (P36888 1-993): T1 sequence (P36888 1-993 F691L/D835Y) with L691F, Y835D
Description: as §1

[3] = tested on: Parental Ba/F3 cells; details: BaF3; Parental Ba/F3 with mouse IL-3 1 ng/mL; 72 hours; cell titer glo
Description: as §1
A parental Ba/F3 cell line having no FLT3 mutation gene was cultured by using a culture solution supplemented with mouse IL-3 (R&D Systems), such that a final concentration became 1 ng/mL in the culture solution including 90% RPMI, 10% FBS, and an antibiotic (Welgene). The activity was measured by a method which is the same as described above.

Row | GI50 [1] [µM] | GI50 [2] [µM] | SMILES | IC50 [3] [µM]
1 | 0.004 | 0.006 | NC(=O)Nc1cc(C#Cc2ccc(C(F)(F)F)cc2)sc1C(=O)N[C@H]1CCCNC1 [Example 16, ((S)—N-(piperidin-3-yl)-5-((4-(trifluoromethyl)phenyl)ethynyl)-3-ureidothiophene-2-carboxamide trifluoroacetate] | 14.8
2 | 0.003 | 0.003 | NC(=O)Nc1cc(C#Cc2cnn(C3CCOCC3)c2)sc1C(=O)N[C@H]1CCCCNC1 [Example 46, (S)—N-(azepan-3-yl)-5-((1-(tetrahydro-2H-pyran-4-yl)-1H-pyrazol-4-yl)ethynyl)-3-ureidothiophene-2-carboxamide trifluoroacetate] | 0.3
3 | 0.031 | 0.017 | CC(=O)N1CCC(n2cc(C#Cc3cc(NC(N)=O)c(C(=O)N[C@H]4CCCCNC4)s3)cn2)CC1 [Example 49] | > 5
4 | 1.24 | 3.73 | Cn1cc(C#Cc2cc(NC(N)=O)c(C(=O)NC3CCNC3)s2)cn1 (stereo not drawn) [Example 39, 5-((1-methyl-1H-pyrazol-4-yl)ethynyl)-N-(pyrrolidin-3-yl)-3-ureidothiophene-2-carboxamide trifluoroacetate] | > 100
5 | 0.004 | 0.006 | CC(C)n1cc(C#Cc2cc(NC(N)=O)c(C(=O)N[C@H]3CCCCNC3)s2)cn1 [Example 44, (S)—N-(azepan-3-yl)-5-((1-isopropyl-1H-pyrazol-4-yl)ethynyl)-3-ureidothiophene-2-carboxamide trifluoroacetate] | 2.45
6 | < 0.004 | < 0.005 | NC(=O)Nc1cc(C#Cc2ccc([N+](=O)[O-])cc2)sc1C(=O)N[C@H]1CCCNC1 [Example 7, (S)-5-((4-nitrophenyl)ethynyl)-N-(piperidin-3-yl)-3-ureidothiophene-2-carboxamide] | 1.86
7 | < 0.001 | < 0.001 | NC(=O)Nc1cc(C#Cc2ccccc2)sc1C(=O)N[C@H]1CCCNC1 [Example 2, (S)-5-(phenylethynyl)-N-(piperidin-3-yl)-3-ureidothiophene-2-carboxamide] | 0.159
8 | < 0.004 | < 0.005 | NC(=O)Nc1cc(C#Cc2cccnc2)sc1C(=O)N[C@H]1CCCNC1 [Example 3, (S)—N-(piperidin-3-yl)-5-(pyridin-3-ylethynyl)-3-ureidothiophene-2-carboxamide] | 6.46
9 | < 0.001 | < 0.001 | NC(=O)Nc1cc(C#Cc2ccc(F)c(F)c2)sc1C(=O)N[C@H]1CCCNC1 [Example 14, (S)-5-((3,4-difluorophenyl)ethynyl)-N-(piperidin-3-yl)-3-ureidothiophene-2-carboxamide] | 0.269
10 | 0.01 | 0.016 | NC(=O)Nc1cc(C#Cc2ccncc2)sc1C(=O)N[C@H]1CCCNC1 [Example 4, (S)—N-(piperidin-3-yl)-5-(pyridin-4-ylethynyl)-3-ureidothiophene-2-carboxamide] | 24
11 | < 0.004 | < 0.005 | NC(=O)Nc1cc(C#Cc2ccnc(F)c2)sc1C(=O)N[C@H]1CCCNC1 [Example 21, (S)-5-((2-fluoropyridin-4-yl)ethynyl)-N-(piperidin-3-yl)-3-ureidothiophene-2-carboxamide] | 2.78
12 | 0.009 | 0.028 | Cn1cc(C#Cc2cc(NC(N)=O)c(C(=O)N[C@H]3CCCNC3)s2)cn1 [Example 15, (S)-5-((l-methyl-1H-pyrazol-4-yl)ethynyl)-N-(piperidin-3-yl)-3-ureidothiophene-2-carboxamide trifluoroacetate] | 34.6
13 | 0.007 | 0.013 | Cn1cc(C#Cc2cc(NC(N)=O)c(C(=O)N[C@H]3CCCCNC3)s2)cn1 [Example 41, (S)—N-(azepan-3-yl)-5-((1-methyl-1H-pyrazol-4-yl)ethynyl)-3-ureidothiophene-2-carboxamide trifluoroacetate] | 3.69
14 | < 0.001 | 0.001 | NC(=O)Nc1cc(C#Cc2ccc(Cl)cc2)sc1C(=O)N[C@H]1CCCNC1 [Example 8, (S)-5-((4-chlorophenyl)ethynyl)-N-(piperidin-3-yl)-3-ureidothiophene-2-carboxamide] | 0.36
15 | 0.079 | 0.164 | NC(=O)Nc1cc(C#Cc2cccc(F)c2)sc1C(=O)NC1CCNC1 (stereo not drawn) [Example 40, 5-((3-fluorophenyl)ethynyl)-N-(pyrrolidin-3-yl)-3-ureidothiophene-2-carboxamide] | 14.9
16 | < 0.001 | < 0.001 | N#Cc1ccc(C#Cc2cc(NC(N)=O)c(C(=O)N[C@H]3CCCNC3)s2)cc1 [Example 11, (S)-5-((4-cyanophenyl)ethynyl)-N-(piperidin-3-yl)-3-ureidothiophene-2-carboxamide] | 0.143
17 | < 0.001 | < 0.001 | NC(=O)Nc1cc(C#Cc2ccc(F)cc2)sc1C(=O)N[C@H]1CCCNC1 [Example 9, (S)-5-((4-fluorophenyl)ethynyl)-N-(piperidin-3-yl)-3-ureidothiophene-2-carboxamide] | 0.429
18 | 0.019 | 0.038 | COCCn1cc(C#Cc2cc(NC(N)=O)c(C(=O)N[C@H]3CCCCNC3)s2)cn1 [Example 45, (S)—N-(azepan-3-yl)-5-((1-(2-methoxyethyl)-1H-pyrazol-4-yl)ethynyl)-3-ureidothiophene-2-carboxamide trifluoroacetate] | 16.8

Row | SMILES | GI50 [1] [µM] | GI50 [2] [µM] | IC50 [3] [µM]
19 | NC(=O)Nc1cc(C#Cc2cccc(F)c2)sc1C(=O)N[C@H]1CCCNC1 [Example 22, (S)-5-((3-fluorophenyl)ethynyl)-N-(piperidin-3-yl)-3-ureidothiophene-2-carboxamide] | < 0.001 | 0.007 | 3.65
